Assay results reported in PMC7318222, “A Family of Water‐Immiscible, Dipolar Aprotic, Diamide Solvents from Succinic Acid” (Chemsuschem, 2020).

Tests used:
[1] = biological target: T1, GR (Homo sapiens, UniProt P04150); assay: GR-anti CALUX reporter gene assay (antagonistic mode); format: cell-based; design: key: –: no effect observed up to the highest test concentration; details: PC20, 24 h exposure
T1 construct: expression construct for the full-length human receptor under investigation; expressed in transfected cells; host or cells: human U2-OS cells (ATCC HTB-96), stably transfected
T1 sequence (P04150 1-777): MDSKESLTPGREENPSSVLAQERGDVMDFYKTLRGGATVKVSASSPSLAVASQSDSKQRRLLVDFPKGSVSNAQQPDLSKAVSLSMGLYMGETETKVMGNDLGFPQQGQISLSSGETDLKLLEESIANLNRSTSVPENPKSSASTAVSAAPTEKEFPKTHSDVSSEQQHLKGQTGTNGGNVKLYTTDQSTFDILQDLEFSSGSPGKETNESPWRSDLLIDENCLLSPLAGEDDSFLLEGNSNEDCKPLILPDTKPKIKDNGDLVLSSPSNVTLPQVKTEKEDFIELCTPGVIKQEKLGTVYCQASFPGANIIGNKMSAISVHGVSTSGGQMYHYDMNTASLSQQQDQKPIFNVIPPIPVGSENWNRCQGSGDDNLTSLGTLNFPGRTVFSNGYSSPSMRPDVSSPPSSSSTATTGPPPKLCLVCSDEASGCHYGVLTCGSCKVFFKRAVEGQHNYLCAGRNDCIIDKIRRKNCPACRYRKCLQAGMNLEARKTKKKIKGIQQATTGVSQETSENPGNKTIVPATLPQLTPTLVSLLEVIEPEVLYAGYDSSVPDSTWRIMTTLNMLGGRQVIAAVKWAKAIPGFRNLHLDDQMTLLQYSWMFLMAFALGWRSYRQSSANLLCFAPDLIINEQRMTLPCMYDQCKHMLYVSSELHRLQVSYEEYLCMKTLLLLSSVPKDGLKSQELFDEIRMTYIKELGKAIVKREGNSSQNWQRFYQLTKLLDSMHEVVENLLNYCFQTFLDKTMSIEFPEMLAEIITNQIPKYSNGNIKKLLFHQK
Excerpt: nitroaniline ≥98.0% was purchased from Alfa Aeser. Cyrene was supplied by Circa group. N-butylpyrrolidinone was supplied by Eastman chemicals. […]
Polyarylethersulfone of 55,000 Da were obtained from INGE.BASF, Germany. The CALUX cell lines have been described previously.[1] They are based on human U2-OS cells (ATCC, HTB-96) stably transfected with an expression construct for the full-length human receptor under investigation, and a reporter construct consisting of multimerized responsive elements for the cognate receptor coupled to a minimal promoter element (TATA) and a luciferase gene. Cells were maintained as described previously,[2] using cell culture media and supplements from Fisher Scientific as described in the experimental procedures section. […]
In vitro reporter gene assays
The automated CALUX assays were carried out similarly as described earlier,[12] with some adaptations. In brief, the assay was performed in CO2 independent medium (Fisher Scientific, […]
with 30 µl cell suspension/well. After 24 h, exposure medium was prepared. A dilution series in 0.5log unit increments of each test compound (in DMSO) was added to a 96-wells plate containing assay medium (2% v/v). Of this exposure mixture, 30 µl was added to the assay plates containing the CALUX cells, resulting in a final DMSO concentration of 1%. Additionally, DMSO blanks and a full dose response curve of the relevant reference compound were included on each plate. All samples were tested in triplicate. The preparation of the compound dilution series as well as the exposure of the cells were performed on a Hamilton StarLET liquid handling robot coupled to a Cytomat incubator.
Directly after exposure, plates were sealed with non-breathing plate seals (Plate sealer, easy seal […]
After 24 h the exposure medium was removed using an EL406 washer-dispenser (BioTek) and 10 µl/well triton lysisbuffer was added by the EL406.
Subsequently, the luciferase signal was measured in a luminometer (InfinitePro coupled to a Connect Stacker, both TECAN). In order to be able to detect receptor antagonism, several assays were also performed in antagonistic mode. The assay procedure was as described above, with the only exception that the EC50 concentration of the reference agonist was present during the exposure.
The luminometer data was analysed as follows; the average of the triplicate wells was determined, […]

[2] = shake flask; GC analysis of both layers with diglyme internal standard (SI); details: not told

| SMILES | LEC GR‐anti [1] | log partition 1-octanol / water [2] |
| --- | --- | --- |
| CCCCN(CCCC)C(=O)CCC(=O)N(CCCC)CCCC [TBSA, N,N,N′,N′‐tetrabutylsuccindiamide] | – | 3.77 log10 of concentration ratio (GC peak-area ratio) |
| CCCCN1CCCC1=O [NBP, N‐Butylpyrrolidinone, reference compound] | – | 0.99 log10 of concentration ratio (GC peak-area ratio) |
| CCCCN(CC)C(=O)CCC(=O)N(CC)CCCC [EBSA, N,N′‐diethyl‐N,N′‐dibutylsuccindiamide] | – | 2.72 log10 of concentration ratio (GC peak-area ratio) |
| CCCCN(C)C(=O)CCC(=O)N(C)CCCC [MBSA, N,N′‐dimethyl‐N,N′‐dibutylsuccindiamide] | – | 1.65 log10 of concentration ratio (GC peak-area ratio) |
